Common to all, as to test: microscale thermophoresis
Type in all cases: binding
(Microscale thermophoresis detects binding through changes in fluorescence in a small temperature gradient.)

Experiment [1] has as its target T1, CC-SPRY (Homo sapiens, UniProt Q6ZMU5).
T1 construct: gene TRIM72; coiled-coil plus SPRY; E. coli; GFP-labelled for MST; dimer
T1 sequence (Q6ZMU5 122-477): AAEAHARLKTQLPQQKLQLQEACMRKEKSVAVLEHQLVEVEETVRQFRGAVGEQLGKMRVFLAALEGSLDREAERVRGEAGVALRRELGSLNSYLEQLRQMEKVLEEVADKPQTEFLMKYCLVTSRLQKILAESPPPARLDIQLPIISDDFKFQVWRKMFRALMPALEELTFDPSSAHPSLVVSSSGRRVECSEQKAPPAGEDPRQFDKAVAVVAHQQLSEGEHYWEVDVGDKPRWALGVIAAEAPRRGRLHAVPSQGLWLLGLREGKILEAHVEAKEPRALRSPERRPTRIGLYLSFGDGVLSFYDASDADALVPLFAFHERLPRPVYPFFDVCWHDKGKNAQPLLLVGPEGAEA
The following applies: 50 mM Tris pH 8.0, 80 mM NaCl, 0.05% Tween 20, 0.3 mM TCEP; room temperature; GFP-labelled protein.

Experiment [2] deals with T2, SPRY domain (Homo sapiens, UniProt Q6ZMU5).
T2 construct: gene TRIM72; SPRY domain, residues 278-477; E. coli; GFP-labelled for MST; monomer
T2 sequence (Q6ZMU5 278-477): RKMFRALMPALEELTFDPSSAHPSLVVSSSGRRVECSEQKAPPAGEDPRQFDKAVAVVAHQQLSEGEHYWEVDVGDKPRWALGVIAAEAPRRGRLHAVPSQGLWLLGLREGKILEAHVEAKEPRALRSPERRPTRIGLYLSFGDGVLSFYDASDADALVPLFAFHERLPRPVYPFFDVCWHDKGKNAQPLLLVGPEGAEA
The following applies: 50 mM Tris pH 8.0, 80 mM NaCl, 0.05% Tween 20, 0.3 mM TCEP; room temperature; GFP-labelled protein.

Experiment [3] has as its target T3, TRIM72 (full-length; also MG53) (Homo sapiens, UniProt Q6ZMU5, R169A/R180A/R198A).
T3 construct: full-length residues 2-477; E. coli Rosetta (DE3), His-Sumo cut by Ulp1; GFP-labelled for MST, FLAG-tagged for PIP-Strips; dimer
T3 sequence (Q6ZMU5 2-477 R169A/R180A/R198A): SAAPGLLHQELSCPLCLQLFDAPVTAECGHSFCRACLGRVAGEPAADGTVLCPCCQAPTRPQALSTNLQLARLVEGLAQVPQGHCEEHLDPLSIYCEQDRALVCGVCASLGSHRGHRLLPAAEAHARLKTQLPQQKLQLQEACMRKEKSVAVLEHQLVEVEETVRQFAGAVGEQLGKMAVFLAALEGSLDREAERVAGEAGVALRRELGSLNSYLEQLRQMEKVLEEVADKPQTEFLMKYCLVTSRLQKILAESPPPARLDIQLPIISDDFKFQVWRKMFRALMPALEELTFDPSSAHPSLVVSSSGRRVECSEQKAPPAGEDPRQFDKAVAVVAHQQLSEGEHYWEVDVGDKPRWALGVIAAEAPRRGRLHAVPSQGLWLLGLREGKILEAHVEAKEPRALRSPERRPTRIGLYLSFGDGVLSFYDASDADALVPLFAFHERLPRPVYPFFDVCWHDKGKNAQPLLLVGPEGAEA

Experiment [4] concerns the target T4, coiled-coil domain alone (121-277) (Homo sapiens, UniProt Q6ZMU5).
T4 construct: gene TRIM72; coiled-coil domain, residues 121-277; E. coli; GFP-labelled for MST
T4 sequence (Q6ZMU5 121-277): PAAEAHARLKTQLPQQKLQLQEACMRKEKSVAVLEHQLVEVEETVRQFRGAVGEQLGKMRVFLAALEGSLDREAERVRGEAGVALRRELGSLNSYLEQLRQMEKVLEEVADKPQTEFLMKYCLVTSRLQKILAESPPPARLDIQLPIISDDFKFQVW
The following applies: 50 mM Tris pH 8.0, 80 mM NaCl, 0.05% Tween 20, 0.3 mM TCEP; room temperature; GFP-labelled protein.

Experiment [5] concerns the target T5, TRIM72 (full-length; also MG53) (Homo sapiens, UniProt Q6ZMU5).
T5 construct: full-length residues 2-477; E. coli Rosetta (DE3), His-Sumo cut by Ulp1; GFP-labelled for MST, FLAG-tagged for PIP-Strips; dimer
T5 sequence (Q6ZMU5 2-477): T3 sequence (Q6ZMU5 2-477 R169A/R180A/R198A) with A168R, A179R, A197R
The following applies: 50 mM Tris pH 8.0, 80 mM NaCl, 0.05% Tween 20, 0.3 mM TCEP; room temperature; GFP-labelled protein.

Each structure is given as a SMILES string. Numbering of substitutions follows the chain as printed.

Broadly, the Kd is the free concentration of one partner at which half of the binding sites on the other are occupied at equilibrium, for simple one-to-one binding. Lower therefore signals a tighter complex. With `N[C@@H](COP(=O)(O)O)C(=O)O` [phospho-L-serine], the Kd in experiment [1] was around 10 µM; in experiment [2], around 4.7 µM; in experiment [3] it was around 38 µM; in experiment [4], around 19.6 µM; in experiment [5] it was around 10 µM.

The record behind these values is paper PMC10030467 (Nature Communications, 2023).
